Laboratory results reported in the NIST ThermoML archive (doi:10.1021/je900525f).
Numbers after ± are expanded uncertainties.

Test: xn = mol fraction of the nth substance listed
Settings: 101 kPa, Liquid; for viscosity: Capillary tube (Ostwald / Ubbelohde) method; for speed of sound: Pulse-echo method

CCOC(=O)CCl [ethyl chloroethanoate] + N#CCc1ccccc1
Settings | mass density, 303.15 K [kg/m3] | mass density, 308.15 K [kg/m3] | mass density, 313.15 K [kg/m3] | speed of sound, 303.15 K [m/s] | speed of sound, 308.15 K [m/s] | speed of sound, 313.15 K [m/s] | viscosity, 303.15 K [mPa·s] | viscosity, 308.15 K [mPa·s] | viscosity, 313.15 K [mPa·s]
x2 = 0 | 1139.3 ± 0.9 | 1132.5 ± 0.9 | 1125.9 ± 0.9 | 1229.4 ± 7.5 | 1212.4 ± 7.4 | 1197.6 ± 7.3 | 0.9692 ± 0.012 | 0.8979 ± 0.012 | 0.8341 ± 0.012
x2 = 0.0205 | 1135.8 ± 0.9 | 1129.8 ± 0.9 | 1123.2 ± 0.9 | 1235.7 ± 7.5 | 1218.9 ± 7.4 | 1204 ± 7.3 | 0.9824 ± 0.012 | 0.9115 ± 0.012 | 0.8463 ± 0.012
x2 = 0.1376 | 1119.2 ± 0.8 | 1114.3 ± 0.9 | 1107.6 ± 0.9 | 1268.8 ± 7.7 | 1254 ± 7.6 | 1240.4 ± 7.5 | 1.069 ± 0.013 | 0.9906 ± 0.013 | 0.9164 ± 0.012
x2 = 0.2585 | 1102.6 ± 0.8 | 1098.5 ± 0.8 | 1091.7 ± 0.9 | 1303.2 ± 7.9 | 1291.5 ± 7.8 | 1279 ± 7.8 | 1.161 ± 0.013 | 1.072 ± 0.013 | 0.9925 ± 0.013
x2 = 0.3793 | 1086.4 ± 0.8 | 1083.3 ± 0.8 | 1076.2 ± 0.8 | 1338.7 ± 8.1 | 1328.4 ± 8.1 | 1316.6 ± 8 | 1.254 ± 0.014 | 1.155 ± 0.013 | 1.07 ± 0.013
x2 = 0.4843 | 1072.6 ± 0.8 | 1069.8 ± 0.8 | 1062.8 ± 0.8 | 1370.5 ± 8.3 | 1361.6 ± 8.3 | 1348.5 ± 8.2 | 1.336 ± 0.014 | 1.229 ± 0.013 | 1.139 ± 0.013
x2 = 0.5875 | 1059.3 ± 0.8 | 1056.4 ± 0.8 | 1049.8 ± 0.8 | 1400.6 ± 8.5 | 1388.9 ± 8.4 | 1381 ± 8.4 | 1.419 ± 0.015 | 1.302 ± 0.014 | 1.207 ± 0.013
x2 = 0.7152 | 1043.2 ± 0.8 | 1040 ± 0.8 | 1034 ± 0.8 | 1438.2 ± 8.7 | 1426.3 ± 8.6 | 1419.9 ± 8.6 | 1.523 ± 0.015 | 1.394 ± 0.014 | 1.292 ± 0.014
x2 = 0.8434 | 1027.5 ± 0.7 | 1023.7 ± 0.8 | 1018.3 ± 0.8 | 1476.9 ± 8.9 | 1466 ± 8.9 | 1457.4 ± 8.8 | 1.628 ± 0.016 | 1.488 ± 0.015 | 1.379 ± 0.014
x2 = 0.9764 | 1011.6 ± 0.7 | 1007 ± 0.7 | 1002.3 ± 0.8 | 1516 ± 9.2 | 1505.6 ± 9.1 | 1495.8 ± 9.1 | 1.74 ± 0.016 | 1.584 ± 0.015 | 1.471 ± 0.015

CCOC(=O)CC#N [ethyl cyanoacetate] + N#CCc1ccccc1
Settings | mass density, 303.15 K [kg/m3] | mass density, 308.15 K [kg/m3] | mass density, 313.15 K [kg/m3] | speed of sound, 303.15 K [m/s] | speed of sound, 308.15 K [m/s] | speed of sound, 313.15 K [m/s] | viscosity, 303.15 K [mPa·s] | viscosity, 308.15 K [mPa·s] | viscosity, 313.15 K [mPa·s]
x2 = 0 | 1051.4 ± 1.4 | 1046.5 ± 1.4 | 1040.8 ± 1.5 | 1396.9 ± 8.6 | 1384.8 ± 8.6 | 1367.7 ± 8.5 | 2.186 ± 0.027 | 1.962 ± 0.024 | 1.77 ± 0.022
x2 = 0.0223 | 1050.1 ± 1.4 | – | 1039.8 ± 1.4 | 1399.6 ± 8.7 | – | 1370.4 ± 8.5 | 2.179 ± 0.026 | – | 1.764 ± 0.022
x2 = 0.0233 | – | 1045.6 ± 1.4 | – | – | 1386.5 ± 8.6 | – | – | 1.955 ± 0.024 | –
x2 = 0.1383 | 1044.4 ± 1.3 | 1040.9 ± 1.3 | 1034.8 ± 1.3 | 1412.3 ± 8.7 | 1397.7 ± 8.6 | 1384.6 ± 8.5 | 2.135 ± 0.025 | 1.917 ± 0.023 | 1.733 ± 0.021
x2 = 0.2569 | 1038.8 ± 1.2 | 1035.9 ± 1.2 | 1029.9 ± 1.2 | 1424.4 ± 8.7 | 1410 ± 8.7 | 1399.1 ± 8.6 | 2.088 ± 0.024 | 1.877 ± 0.022 | 1.701 ± 0.02
x2 = 0.3778 | 1033.4 ± 1.1 | 1030.8 ± 1.1 | 1025.3 ± 1.1 | 1436 ± 8.8 | 1423.7 ± 8.7 | 1414.2 ± 8.7 | 2.039 ± 0.022 | 1.836 ± 0.02 | 1.671 ± 0.019
x2 = 0.4842 | 1028.9 ± 1 | 1026.3 ± 1 | 1021.1 ± 1.1 | 1448 ± 8.8 | 1436.3 ± 8.8 | 1429.2 ± 8.7 | 1.995 ± 0.021 | 1.799 ± 0.019 | 1.644 ± 0.018
x2 = 0.5882 | 1024.6 ± 0.9 | 1021.8 ± 1 | 1016.8 ± 1 | 1461.3 ± 8.9 | 1450.4 ± 8.8 | 1442 ± 8.8 | 1.95 ± 0.02 | 1.761 ± 0.018 | 1.612 ± 0.017
x2 = 0.7172 | 1019.4 ± 0.9 | 1016.2 ± 0.9 | 1011.4 ± 0.9 | 1479.4 ± 9 | 1468.5 ± 8.9 | 1459.4 ± 8.9 | 1.893 ± 0.019 | 1.713 ± 0.017 | 1.572 ± 0.017
x2 = 0.8426 | 1014.6 ± 0.8 | 1010.9 ± 0.8 | 1005.8 ± 0.8 | 1496.9 ± 9.1 | 1487.6 ± 9 | 1478 ± 9 | 1.835 ± 0.017 | 1.664 ± 0.017 | 1.535 ± 0.016
x2 = 0.9759 | 1009.7 ± 0.7 | 1005.2 ± 0.7 | 1000.4 ± 0.8 | 1515.5 ± 9.2 | 1508.7 ± 9.1 | 1495.9 ± 9.1 | 1.773 ± 0.017 | 1.612 ± 0.016 | 1.496 ± 0.015

N#CCc1ccccc1 [benzeneacetonitrile] + CCOC(C)=O
Settings | mass density, 303.15 K [kg/m3] | mass density, 308.15 K [kg/m3] | mass density, 313.15 K [kg/m3] | speed of sound, 303.15 K [m/s] | speed of sound, 308.15 K [m/s] | speed of sound, 313.15 K [m/s] | viscosity, 303.15 K [mPa·s] | viscosity, 308.15 K [mPa·s] | viscosity, 313.15 K [mPa·s]
x1 = 0.0198 | 892.4 ± 0.5 | 887.4 ± 0.5 | 880.8 ± 0.5 | 1125.1 ± 6.8 | 1109.3 ± 6.7 | 1104.3 ± 6.7 | 0.396 ± 0.01 | 0.376 ± 0.01 | 0.357 ± 0.01
x1 = 0.1279 | 910.4 ± 0.5 | 905.4 ± 0.5 | 899.6 ± 0.6 | 1173.8 ± 7.1 | 1164.8 ± 7 | 1159.7 ± 7 | 0.483 ± 0.011 | 0.458 ± 0.011 | 0.431 ± 0.01
x1 = 0.2425 | 926.8 ± 0.5 | 922.7 ± 0.6 | 916.9 ± 0.6 | 1230.8 ± 7.4 | 1218.2 ± 7.4 | 1209.3 ± 7.3 | 0.591 ± 0.011 | 0.556 ± 0.011 | 0.524 ± 0.011
x1 = 0.3589 | 942.3 ± 0.6 | 938 ± 0.6 | 933.4 ± 0.6 | 1286.7 ± 7.8 | 1278.4 ± 7.7 | 1263.6 ± 7.6 | 0.714 ± 0.011 | 0.668 ± 0.011 | 0.627 ± 0.011
x1 = 0.461 | 955.3 ± 0.6 | 950.9 ± 0.6 | 946.5 ± 0.6 | 1326.1 ± 8 | 1312.5 ± 7.9 | 1303.1 ± 7.9 | 0.839 ± 0.012 | 0.781 ± 0.011 | 0.733 ± 0.011
x1 = 0.5665 | 967.5 ± 0.6 | 963.3 ± 0.6 | 958.5 ± 0.6 | 1366.7 ± 8.3 | 1355.1 ± 8.2 | 1344.9 ± 8.1 | 0.984 ± 0.012 | 0.914 ± 0.012 | 0.856 ± 0.012
x1 = 0.6978 | 981.5 ± 0.6 | 978.1 ± 0.7 | 972.4 ± 0.7 | 1417.8 ± 8.6 | 1410.8 ± 8.5 | 1400 ± 8 | 1.18 ± 0.013 | 1.092 ± 0.013 | 1.017 ± 0.012
x1 = 0.8328 | 994.9 ± 0.7 | 991.8 ± 0.7 | 985.2 ± 0.7 | 1464.3 ± 8.9 | 1461.3 ± 8.8 | 1446.8 ± 8.8 | 1.416 ± 0.014 | 1.307 ± 0.014 | 1.209 ± 0.013
x1 = 0.9745 | 1006.5 ± 0.7 | 1002.6 ± 0.7 | 998.1 ± 0.8 | 1508.3 ± 9.1 | 1500.5 ± 9.1 | 1490 ± 9 | 1.695 ± 0.016 | 1.554 ± 0.015 | 1.43 ± 0.014
x1 = 1 | 1008.8 ± 0.7 | 1004.1 ± 0.7 | 999.5 ± 0.8 | 1519.2 ± 9.2 | 1512.9 ± 9.2 | 1503.4 ± 9.1 | 1.761 ± 0.016 | 1.602 ± 0.015 | 1.489 ± 0.015
